Data published in US20260216347A1, “Substituted Imidazo-Based Compounds as Ligand Directed Degraders of IRAK3” (Celgene Corporation, priority 2022, published 2026).

Each compound was assayed against T1, IRAK3 (Homo sapiens, UniProt Q9Y616) (assay: IRAK3 biochemical binding assay (LanthaScreen Eu Kinase Binding, TR-FRET)).
T1 construct: IRAK Endogenous HTRF Degradation Assay; endogenous in cells
T1 sequence (Q9Y616 1-596): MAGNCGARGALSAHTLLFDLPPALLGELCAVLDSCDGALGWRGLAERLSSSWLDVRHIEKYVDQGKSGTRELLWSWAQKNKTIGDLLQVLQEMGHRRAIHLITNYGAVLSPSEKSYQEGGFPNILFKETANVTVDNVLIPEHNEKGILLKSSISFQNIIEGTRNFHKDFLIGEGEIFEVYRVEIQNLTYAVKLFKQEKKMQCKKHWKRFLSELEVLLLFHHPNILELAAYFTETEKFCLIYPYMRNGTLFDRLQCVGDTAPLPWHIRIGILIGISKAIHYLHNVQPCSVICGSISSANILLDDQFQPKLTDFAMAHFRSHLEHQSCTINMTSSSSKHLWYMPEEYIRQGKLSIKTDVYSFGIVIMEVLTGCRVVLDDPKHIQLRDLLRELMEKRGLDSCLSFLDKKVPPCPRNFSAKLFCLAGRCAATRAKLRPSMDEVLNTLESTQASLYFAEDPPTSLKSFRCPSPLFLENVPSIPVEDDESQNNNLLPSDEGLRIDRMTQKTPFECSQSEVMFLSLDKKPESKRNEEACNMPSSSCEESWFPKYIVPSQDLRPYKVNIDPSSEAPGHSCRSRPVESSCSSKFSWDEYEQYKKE
Outline: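 TR-FRET tracer-displacement binding with 10 nM IRAK3, 2 nM Eu-anti-GST antibody and 10 nM tracer in 50 mM HEPES pH 7.4, MgCl2, 1 mM EGTA, 0.01% Brij-35. Compounds in 3-fold dilutions, 1 h at room temperature. 665/615 nm ratio gave % inhibition; IC50 and Hill slope from dose-response fit.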

SMILES | IC50
Cc1cccc(-c2cnc(Nc3cnn(C4CCN(CC(=O)N5CCN(c6ccc7c(c6)C(=O)N(C6CCC(=O)NC6=O)C7=O)CC5)CC4)c3)c3nccn23)c1 (centres unmarked) [Compound 1, 2-(2,6-dioxopiperidin-3-yl)-5-(4-(2-(4-(4-((5-(m-tolyl)imidazo[1,2-a]pyrazin-8-yl)amino)-1H-pyrazol-1-yl)piperidin-1-yl)acetyl)piperazin-1-yl)isoindoline-1,3-dione] | 5 nM
Cc1cccc(-c2cnc(Nc3cnn(C4CCN(CCN5CCN(c6ccc7c(c6)C(=O)N(C6CCC(=O)NC6=O)C7=O)CC5)CC4)c3)c3nccn23)c1 (centres unmarked) [Compound 2, 2-(2,6-dioxopiperidin-3-yl)-5-(4-(2-(4-(4-((5-(m-tolyl)imidazo[1,2-a]pyrazin-8-yl)amino)-1H-pyrazol-1-yl)piperidin-1-yl)ethyl)piperazin-1-yl)isoindoline-1,3-dione] | 4.2 nM
Cc1cccc(-c2cnc(Nc3cnn(C4CCN(CCCCN5CCN(c6ccc(C7CCC(=O)NC7=O)cc6)CC5)CC4)c3)c3nccn23)c1 (centres unmarked) [Compound 3, 3-(4-(4-(4-(4-(4-((5-(m-tolyl)imidazo[1,2-a]pyrazin-8-yl)amino)-1H-pyrazol-1-yl)piperidin-1-yl)butyl)piperazin-1-yl)phenyl) piperidine-2,6-dione] | 1.3 nM
Cc1cccc(-c2cnc(Nc3cnn(C4CCN(CCCN5CCN(c6ccc(C7CCC(=O)NC7=O)cc6)CC5)CC4)c3)c3nccn23)c1 (centres unmarked) [Compound 4, 3-(4-(4-(3-(4-(4-((5-(m-tolyl)imidazo[1,2-a]pyrazin-8-yl)amino)-1H-pyrazol-1-yl)piperidin-1-yl)propyl)piperazin-1-yl)phenyl) piperidine-2,6-dione] | 2.3 nM
Cc1cc(-c2cnc(Nc3cnn(C4CCN(CC(=O)N5CCN(c6ccc7c(c6)C(=O)N(C6CCC(=O)NC6=O)C7=O)CC5)CC4)c3)c3nccn23)c(F)cc1F (centres unmarked) [Compound 6, 5-(4-(2-(4-(4-((5-(2,4-difluoro-5-methylphenyl)imidazo[1,2-a]pyrazin-8-yl)amino)-1H-pyrazol-1-yl)piperidin-1-yl)acetyl)piperazin-1-yl)-2-(2,6-dioxopiperidin-3-yl)isoindoline-1,3-dione] | 1 nM
Cc1cc(-c2cnc(Nc3cnn(C4CCN(CC(=O)N5CCN(c6ccc7c(c6)CN(C6CCC(=O)NC6=O)C7=O)CC5)CC4)c3)c3nccn23)c(F)cc1F (centres unmarked) [Compound 10, 3-(5-(4-(2-(4-(4-((5-(2,4-difluoro-5-methylphenyl)imidazo[1,2-a]pyrazin-8-yl)amino)-1H-pyrazol-1-yl)piperidin-1-yl)acetyl)piperazin-1-yl)-1-oxoisoindolin-2-yl)piperidine-2,6-dione] | 0.51 nM
Cc1cccc(-c2cnc(Nc3cnn(C4CCN(CC(=O)N5CCN(c6ccc7c(c6)C(=O)N(C6CCC(=O)NC6=O)C7)CC5)CC4)c3)c3nccn23)c1 (centres unmarked) [Compound 16, 3-(1-oxo-6-(4-(2-(4-(4-((5-(m-tolyl)imidazo[1,2-a]pyrazin-8-yl)amino)-1H-pyrazol-1-yl)piperidin-1-yl)acetyl)piperazin-1-yl)isoindolin-2-yl)piperidine-2,6-dione] | 1.5 nM
Cc1cc(-c2cnc(Nc3cnn(C4CCN(CC(=O)N5CCN(c6ccc7c(c6)C(=O)N(C6CCC(=O)NC6=O)C7)CC5)CC4)c3)c3nccn23)c(F)cc1F (centres unmarked) [Compound 18, 3-(6-(4-(2-(4-(4-((5-(2,4-difluoro-5-methylphenyl)imidazo[1,2-a]pyrazin-8-yl)amino)-1H-pyrazol-1-yl)piperidin-1-yl)acetyl)piperazin-1-yl)-1-oxoisoindolin-2-yl)piperidine-2,6-dione] | 0.5 nM
Cc1cccc(-c2cnc(Nc3cnn(C4CCN(CC(=O)N5CCN(c6ccc7c(c6)CN(C6CCC(=O)NC6=O)C7=O)CC5)CC4)c3)c3nccn23)c1 (centres unmarked) [Compound 19, 3-(1-oxo-5-(4-(2-(4-(4-((5-(m-tolyl)imidazo[1,2-a]pyrazin-8-yl)amino)-1H-pyrazol-1-yl)piperidin-1-yl)acetyl)piperazin-1-yl)isoindolin-2-yl)piperidine-2,6-dione] | 1.8 nM
Cc1cc(-c2cnc(Nc3cnn(C4CCN(CCN5CCN(c6ccc(C7CCC(=O)NC7=O)cc6)CC5)CC4)c3)c3nccn23)ccc1F (centres unmarked) [Compound 33, 3-(4-(4-(2-(4-(4-((5-(4-fluoro-3-methylphenyl)imdazo [1,2-a]pyrazin-8-yl)amino)-1H-pyrazol-1-yl)piperidin-1-yl)ethyl)piperazin-1-yl)phenyl) piperidine-2,6-dione] | 12 nM

Further lines, results first:

IC50 | SMILES
2.8 nM | Cc1cc(-c2cnc(Nc3cnn([C@H]4CC[C@@H](CN5CCN(c6ccc(C7CCC(=O)NC7=O)cc6)CC5)CC4)c3)c3nccn23)c(F)cc1F (relative stereo) [Compound 71, 3-(4-(4-(((cis)-4-(4-((5-(2,4-difluoro-5-methylphenyl)imidazo[1,2-a]pyrazin-8-yl)amino)-1H-pyrazol-1-yl)cyclohexyl)methyl)piperazin-1-yl)phenyl) piperidine-2,6-dione]
1.5 nM | Cc1cc(-c2cnc(Nc3cnn(C4CCN(CCN5CCN(c6ccc(C7CCC(=O)NC7=O)cc6)C[C@@H]5C)CC4)c3)c3nccn23)c(F)cc1F (stereo partly drawn) [Compound 7, 3-(4-((S)-4-(2-(4-(4-((5-(2,4-difluoro-5-methylphenyl)imdazo [1,2-a]pyrazin-8-yl)amino)-1H-pyrazol-1-yl)piperidin-1-yl)ethyl)-3-methylpiperazin-1-yl)phenyl) piperidine-2,6-dione]
1.3 nM | Cc1cc(-c2cnc(Nc3cnn(C4CCN(CCN5CCN(c6ccc(C7CCC(=O)NC7=O)cc6)CC5)CC4)c3)c3nccn23)c(F)cc1F (centres unmarked) [Compound 8, 3-(4-(4-(2-(4-(4-((5-(2,4-difluoro-5-methylphenyl)imidazo[1,2-a]pyrazin-8-yl)amino)-1H-pyrazol-1-yl)piperidin-1-yl)ethyl)piperazin-1-yl)phenyl)piperidine-2,6-dione]
1.1 nM | Cc1cc(-c2cnc(Nc3cnn(C4CCN(CCN5CCN(c6ccc(C7CCC(=O)NC7=O)cc6)C[C@H]5C)CC4)c3)c3nccn23)c(F)cc1F (stereo partly drawn) [Compound 9, 3-(4-((R)-4-(2-(4-(4-((5-(2,4-difluoro-5-methylphenyl)imdazo [1,2-a]pyrazin-8-yl)amino)-1H-pyrazol-1-yl)piperidin-1-yl)ethyl)-3-methylpiperazin-1-yl)phenyl) piperidine-2,6-dione]
8.9 nM | Cc1cc(-c2cnc(Nc3cnn([C@H]4CC[C@H](CCN5CCN(c6ccc(C7CCC(=O)NC7=O)cc6)CC5)CC4)c3)c3nccn23)c(F)cc1F (stereo partly drawn) [Compound 11, 3-(4-(4-(2-((trans)-4-(4-((5-(2,4-difluoro-5-methylphenyl)imidazo[1,2-a]pyrazin-8-yl)amino)-1H-pyrazol-1-yl)cyclohexyl)ethyl)piperazin-1-yl)phenyl)piperidine-2,6-dione]
2 nM | Cc1cc(-c2ccc(Nc3cnn(C4CCN(CCN5CCN(c6ccc(C7CCC(=O)NC7=O)cc6)CC5)CC4)c3)c3nccn23)c(F)cc1F (centres unmarked) [Compound 12, 3-(4-(4-(2-(4-(4-((5-(2,4-difluoro-5-methylphenyl)imdazo [1,2-a]pyridin-8-yl)amino)-1H-pyrazol-1-yl)piperidin-1-yl)ethyl)piperazin-1-yl)phenyl) piperidine-2,6-dione]
1.3 nM | Cc1cc(-c2cnc(Nc3cnn(C4CCN(CCN5[C@H](C)CN(c6ccc(C7CCC(=O)NC7=O)cc6)C[C@@H]5C)CC4)c3)c3nccn23)c(F)cc1F (stereo partly drawn) [Compound 13, 3-(4-((3S,5R)-4-(2-(4-(4-((5-(2,4-difluoro-5-methylphenyl)imdazo [1,2-a]pyrazin-8-yl)amino)-1H-pyrazol-1-yl)piperidin-1-yl)ethyl)-3,5-dimethylpiperazin-1-yl)phenyl) piperidine-2,6-dione]
4.3 nM | Cc1cc(-c2cnc(Nc3cnn([C@H]4CC[C@@H](CCN5CCN(c6ccc(C7CCC(=O)NC7=O)cc6)CC5)CC4)c3)c3nccn23)c(F)cc1F (stereo partly drawn) [Compound 14, 3-(4-(4-(2-((cis)-4-(4-((5-(2,4-difluoro-5-methylphenyl)imidazo[1,2-a]pyrazin-8-yl)amino)-1H-pyrazol-1-yl)cyclohexyl)ethyl)piperazin-1-yl)phenyl) piperidine-2,6-dione]
1.3 nM | Cc1cc(-c2cnc(Nc3cnn(C4CCN(CC(=O)N5CCN(c6ccc(C7CCC(=O)NC7=O)cc6)CC5)CC4)c3)c3nccn23)c(F)cc1F (centres unmarked) [Compound 17, 3-(4-(4-(2-(4-(4-((5-(2,4-difluoro-5-methylphenyl)imidazo[1,2-a]pyrazin-8-yl)amino)-1H-pyrazol-1-yl)piperidin-1-yl)acetyl)piperazin-1-yl)phenyl)piperidine-2,6-dione]
6.1 nM | Cc1cc(-c2cnc(Nc3cnn(C4CCN(CCN5CCN(c6cccc(C7CCC(=O)NC7=O)c6)CC5)CC4)c3)c3nccn23)c(F)cc1F (centres unmarked) [Compound 31, 3-(3-(4-(2-(4-(4-((5-(2,4-difluoro-5-methylphenyl)imdazo [1,2-a]pyrazin-8-yl)amino)-1H-pyrazol-1-yl)piperidin-1-yl)ethyl)piperazin-1-yl)phenyl) piperidine-2,6-dione]
